T/C data for 13 compounds are collected here from PubChem BioAssay AID250 (DTP/NCI, 2004).

This experiment relates to BDF1 mice, L1210 leukemia sc, survival T/C. The experiment is described as follows: NCI In Vivo Anticancer Drug Screen. Data for tumor model L1210 Leukemia (subcutaneous) in B6D2F1 (BDF1) mice. Conditions: endpoint: median survival time, higher = longer survival. An outline of the steps: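 Tumors were transplanted into mice, the animals were treated with compound, survival or tumor size was then measured, and treated values were divided by vehicle-control values.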

Where [1] appears, read: dose: 5.0 mg/kg/injection, schedule: Q01DX Z (sc), vehicle: methylcellulose (MC).
[2] abbreviates: dose: 38.9 mg/kg/injection, schedule: Q01DX Z (sc), vehicle: methylcellulose (MC).
[3] abbreviates: dose: 64.8 mg/kg/injection, schedule: Q01DX Z (sc), vehicle: methylcellulose (MC).
Where [4] appears, read: dose: 108.0 mg/kg/injection, schedule: Q01DX Z (sc), vehicle: methylcellulose (MC).
Where [5] appears, read: dose: 180.0 mg/kg/injection, schedule: Q01DX Z (sc), vehicle: methylcellulose (MC).
Setting [6] is: dose: 300.0 mg/kg/injection, schedule: Q01DX Z (sc), vehicle: methylcellulose (MC).
Where [7] appears, read: dose: 500.0 mg/kg/injection, schedule: Q01DX Z (sc), vehicle: methylcellulose (MC).
[8] abbreviates: dose: 14.0 mg/kg/injection, schedule: Q01DX Z (sc), vehicle: methylcellulose (MC).
Where [9] appears, read: dose: 23.0 mg/kg/injection, schedule: Q01DX Z (sc), vehicle: methylcellulose (MC).
[10] abbreviates: dose: 23.3 mg/kg/injection, schedule: Q01DX Z (sc), vehicle: methylcellulose (MC).
[11] abbreviates: dose: 39.0 mg/kg/injection, schedule: Q01DX Z (sc), vehicle: methylcellulose (MC).
Setting [12] is: dose: 65.0 mg/kg/injection, schedule: Q01DX Z (sc), vehicle: methylcellulose (MC).

Molecules are shown by their SMILES. Several values for one entry are separate records, joined by “and”; a condition that tells them apart may be missing. Equal entries are not always repeated. Toxic doses and inconclusive results are not listed.

For the compound `Cn1cnc([N+](=O)[O-])c1Sc1nc(N)nc2nc[nH]c12`, the T/C (dose: 1.3 mg/kg/injection, schedule: Q01DX Z (sc), vehicle: methylcellulose (MC)) was 110 % of control; the T/C (dose: 2.16 mg/kg/injection, schedule: Q01DX Z (sc), vehicle: methylcellulose (MC)) is 90 % of control and 110 % of control; the T/C (dose: 3.0 mg/kg/injection, schedule: Q01DX Z (sc), vehicle: methylcellulose (MC)) was 109 % of control; the T/C (dose: 3.6 mg/kg/injection, schedule: Q01DX Z (oral), vehicle: methylcellulose (MC)) is 100 % of control; the T/C (dose: 3.6 mg/kg/injection, schedule: Q01DX Z (sc), vehicle: methylcellulose (MC)) was 100 % of control; the T/C under setting [1] was 118 % of control. Besides, the T/C was 109 % of control (dose: 6.0 mg/kg/injection, schedule: Q01DX Z (oral), vehicle: methylcellulose (MC)); 109 % of control (dose: 8.4 mg/kg/injection, schedule: Q01DX Z (oral), vehicle: methylcellulose (MC)); 100 % of control (dose: 10.0 mg/kg/injection, schedule: Q01DX Z (oral), vehicle: methylcellulose (MC)); 122 % of control (dose: 14.0 mg/kg/injection, schedule: Q01DX Z (oral), vehicle: methylcellulose (MC)); 113 % of control (dose: 17.0 mg/kg/injection, schedule: Q01DX Z (oral), vehicle: methylcellulose (MC)); 113 % of control (dose: 28.0 mg/kg/injection, schedule: Q01DX Z (oral), vehicle: methylcellulose (MC)). Moreover, the T/C was 109 % of control (dose: 47.0 mg/kg/injection, schedule: Q01DX Z (oral), vehicle: methylcellulose (MC)); 150 % of control (dose: 47.0 mg/kg/injection, schedule: Q01DX Z (sc), vehicle: methylcellulose (MC)); 154 % of control (dose: 65.0 mg/kg/injection, schedule: Q01DX Z (oral), vehicle: methylcellulose (MC)); 118 % of control (dose: 78.0 mg/kg/injection, schedule: Q01DX Z (oral), vehicle: methylcellulose (MC)); 154 % of control (dose: 108.0 mg/kg/injection, schedule: Q01DX Z (oral), vehicle: methylcellulose (MC)); 113 % of control (dose: 130.0 mg/kg/injection, schedule: Q01DX Z (oral), vehicle: methylcellulose (MC)). The T/C (dose: 216.0 mg/kg/injection, schedule: Q01DX Z (oral), vehicle: methylcellulose (MC)) is 118 % of control.
`Nc1ccn(C2OC(COP(=O)(O)O)C(O)C2O)c(=O)n1` (configuration not stated): the T/C reads like this: (dose: 3.5 mg/kg/injection, schedule: Q01DX Z (sc), vehicle: other) 200 % of control; (dose: 5.8 mg/kg/injection, schedule: Q01DX Z (sc), vehicle: other) 244 % of control; (dose: 9.7 mg/kg/injection, schedule: Q01DX Z (sc), vehicle: other) 272 % of control; (dose: 16.2 mg/kg/injection, schedule: Q01DX Z (sc), vehicle: other) 300 % of control; (dose: 27.0 mg/kg/injection, schedule: Q01DX Z (sc), vehicle: other) 350 % of control; (dose: 45.1 mg/kg/injection, schedule: Q01DX Z (sc), vehicle: other) 305 % of control. Also, the T/C (dose: 75.1 mg/kg/injection, schedule: Q01DX Z (sc), vehicle: other) was 205 % of control.
Consider `CCCSc1ncnc2nc[nH]c12`, for which the T/C is, setting by setting: under setting [2], 100 % of control; under setting [3], 100 % of control; under setting [4], 100 % of control; under setting [5], 120 % of control; under setting [6], 110 % of control.
Regarding `CC1CN1CCS(=O)(=O)CCN1CC1C` (configuration not stated), the T/C (dose: 5.18 mg/kg/injection, schedule: Q01DX Z (sc), vehicle: saline) was 121 % of control; the T/C (dose: 8.64 mg/kg/injection, schedule: Q01DX Z (sc), vehicle: saline) was 168 % of control; the T/C (dose: 14.4 mg/kg/injection, schedule: Q01DX Z (sc), vehicle: saline) is 163 % of control; the T/C (dose: 24.0 mg/kg/injection, schedule: Q01DX Z (sc), vehicle: saline) is 115 % of control; the T/C (dose: 40.0 mg/kg/injection, schedule: Q01DX Z (sc), vehicle: saline) was 105 % of control.
As for `CC(=O)OCC(=O)[C@@]1(O)CC[C@H]2[C@@H]3C[C@H](F)C4=CC(=O)CC[C@]4(C)[C@H]3[C@@H](O)C[C@@]21C`, the T/C was 100 % of control (dose: 8.4 mg/kg/injection, schedule: Q01DX Z (sc), vehicle: steriod suspending solution); 100 % of control (dose: 14.0 mg/kg/injection, schedule: Q01DX Z (sc), vehicle: steriod suspending solution); 111 % of control (dose: 23.0 mg/kg/injection, schedule: Q01DX Z (sc), vehicle: steriod suspending solution); 155 % of control (dose: 39.0 mg/kg/injection, schedule: Q01DX Z (sc), vehicle: steriod suspending solution); 155 % of control (dose: 65.0 mg/kg/injection, schedule: Q01DX Z (sc), vehicle: steriod suspending solution); 150 % of control (dose: 108.0 mg/kg/injection, schedule: Q01DX Z (sc), vehicle: steriod suspending solution). Further, the T/C (dose: 180.0 mg/kg/injection, schedule: Q01DX Z (sc), vehicle: steriod suspending solution) was 161 % of control.
`Cc1cc2nc3c(=O)[nH]c(=O)nc-3n(CC(O)C(O)C(O)C(O)CO)c2cc1C` (configuration not stated): the T/C was 100 % of control under setting [5], 100 % of control under setting [6] and 100 % of control under setting [7].
For the compound `COc1cc([C@@H]2c3cc4c(cc3[C@H](O)[C@H]3COC(=O)[C@H]23)OCO4)cc(OC)c1OC`, the T/C under setting [1] is 109 % of control; the T/C (dose: 8.4 mg/kg/injection, schedule: Q01DX Z (sc), vehicle: methylcellulose (MC)) is 109 % of control; the T/C under setting [8] is 104 % of control; the T/C under setting [9] is 109 % of control.
As for `c1ccc(CNc2ncnc3[nH]ncc23)cc1`, the T/C runs as follows: under setting [10], 115 % of control; under setting [3], 120 % of control; under setting [4], 110 % of control; under setting [5], 110 % of control; under setting [6], 100 % of control; under setting [7], 100 % of control.
Regarding `CCN(CC)CCNc1ccc(C)c2sc3ccccc3c(=O)c12` (tested in a mixture with another compound), the T/C under setting [11] was 100 % of control; the T/C under setting [12] is 100 % of control; the T/C under setting [4] was 100 % of control; the T/C under setting [5] is 100 % of control; the T/C (dose: 200.0 mg/kg/injection, schedule: Q01DX Z (sc), vehicle: methylcellulose (MC)) is 111 % of control.
For the compound `CC(C)CSc1nc(N)nc2nc[nH]c12`, the T/C is 100 % of control under setting [8]; 105 % of control under setting [9]; 111 % of control under setting [11]; 111 % of control under setting [12]; 111 % of control under setting [4]; 116 % of control under setting [5]. Besides, under setting [6], the T/C was 111 % of control.
Consider `COc1cc2c3c(c4ccc(OC)c(OC)c4c2cc1OC)CN1CCC[C@@H]1C3`, for which the T/C was 100 % of control (dose: 3.0 mg/kg/injection, schedule: Q01DX Z (sc), vehicle: carboxymethylcellulose (CMC)); 100 % of control (dose: 5.0 mg/kg/injection, schedule: Q01DX Z (sc), vehicle: carboxymethylcellulose (CMC)); 100 % of control (dose: 8.4 mg/kg/injection, schedule: Q01DX Z (sc), vehicle: carboxymethylcellulose (CMC)); 95 % of control (dose: 14.0 mg/kg/injection, schedule: Q01DX Z (sc), vehicle: carboxymethylcellulose (CMC)); 90 % of control and 105 % of control (dose: 23.0 mg/kg/injection, schedule: Q01DX Z (sc), vehicle: carboxymethylcellulose (CMC)); 100 % of control (dose: 39.0 mg/kg/injection, schedule: Q01DX Z (sc), vehicle: carboxymethylcellulose (CMC)). The T/C runs as follows: (dose: 65.0 mg/kg/injection, schedule: Q01DX Z (sc), vehicle: carboxymethylcellulose (CMC)) 110 % of control; (dose: 108.0 mg/kg/injection, schedule: Q01DX Z (sc), vehicle: carboxymethylcellulose (CMC)) 105 % of control; (dose: 180.0 mg/kg/injection, schedule: Q01DX Z (sc), vehicle: carboxymethylcellulose (CMC)) 115 % of control.
Regarding `CCCCNc1ncnc2c1cnn2C`, the T/C is, setting by setting: under setting [10], 105 % of control; under setting [2], 110 % of control; under setting [3], 110 % of control; under setting [4], 110 % of control; under setting [5], 100 % of control.
On to `CN(C)[C@@H]1C(=O)C(C(=O)NCc2nc3[nH]cnc(=S)c3[nH]2)=C(O)[C@@]2(O)C(=O)C3=C(O)c4c(O)cccc4[C@@](C)(O)[C@H]3C[C@@H]12`, for which the T/C under setting [12] was 100 % of control; the T/C under setting [4] was 100 % of control; the T/C under setting [5] was 100 % of control; the T/C under setting [6] is 105 % of control; the T/C under setting [7] was 175 % of control.
